Consider 1 compound from US9745288B2, “Compounds and methods for treating cancer by inhibiting the urokinase receptor” (Indiana University Research and Technology Corporation, priority 2011, dated 2017).

Data set [1] can be described thus: In vivo PK study, plasma HPLC MS/MS. Set-up: species or system mouse. As to conditions: mice. The method, then:
Pharmacokinetics of the Leads in Rodents. A method to quantify IPR-69 in plasma was developed using HPLC-MS/MS (API 3200; Applied Biosystems). A 20 μL plasma sample was extracted with methyl tertiary butyl ether (MTBE) under neutral conditions (0.1 M phosphate buffer pH=7.4) using temazepam as the internal standard. The extract is evaporated, reconstituted with mobile phase and injected into the HPLC. The HPLC column is a C-8 50×4.6 mm 5-μm column and separation of UPR and temazepam occurred by a linear gradient mobile phase starting with acetonitrile:0.1% formic acid (10:90) and changing to 80:20. The m/z Q1 and Q3 settings on the API 3200 for UPR and temazepam are 418/297 and 301/255, respectively. The lower limit of quantification of IPR-69 is 1 ng/mL using 20 μL of plasma. A standard response curve of IPR-69 was created with concentrations that varied from 1 ng/mL to 1000 ng/mL using 300 ng/mL of temazepam for each sample. To determine drug concentrations of the lead inhibitors in the pharmacological models, the PK properties of the compounds in mice must be characterized. The PK of IPR-69 was determined in NOD/SCID mice following a single dose given PO. The study design used 3 mice per time point. Blood was collected at time intervals from 0 to 24 hours after dosing (8 time points), quantified by the procedure described above. Pharmacokinetic parameters for IPR-69 including area under the curve (AUC), area under the moment curve (AUMC), and t1/2 were estimated using non-compartmental methods with Excel®. The maximum plasma concentration (Cmax) and time of Cmax (tmax) were obtained from the data. The AUC from zero to infinity (AUC0-∞) was estimated from the AUC0-t (time zero to the last quantifiable concentration Clast) and the AUC from Clast to infinity, Clast/kel, where kel is the rate constant of elimination. The AUMC0-∞ was estimated by an analogous manner. The systemic clearance (Cl/F, where F=bioavailability) of IPR-69 was calculated from the dose and AUC0-∞. […]

In data set [2] the test system is MDA-MB-231 cells. Nature of the data set: Adhesion assay on fibronectin-coated wells. The class given is cell-based, human. As to conditions: Homo sapiens; MDA-MB-231, fibronectin. The method, then: Adhesion Assay. Quantitative cell adhesion assays were carried out in nontissue culture treated 96-well microtiter plates (Evergreen Scientific, Los Angeles, Calif.) which were coated with 15 μg/mL fibronectin (Sigma) for 1 h at room temperature. Fibronectin coated and uncoated control wells were blocked for 1 h with 3% heat denatured bovine serum albumin (BSA) at 37° C. Cells were split one day prior to the experiment to achieve a subconfluent culture. […] The wells were washed and the number of adherent cells was quantified by crystal violet staining at 570 nm.^19,20 The results were shown by means±SE.

Data set [3] relates to MDA-MB-231 cells. Nature of the data set: Migration assay (Boyden chamber without Matrigel). The class given is cell-based. To be noted: Homo sapiens.
Description: Invasion and Migration Assays. These assays were performed using BD BioCoat Matrigel Invasion Chamber (Cat. 354480, BD Biosciences, Bedford, Mass.). The undersurface of the inserts was coated with 30 μg/mL of fibronectin (Sigma, F2006) in PBS at 4° C. overnight. The inserts were washed with PBS once. Then, 0.5 mL of serum-free medium was separately added to the upper and lower chambers to equilibrate the Matrigel invasion chambers at 37° C., 5% CO2 for 2 hours. After starvated with serumfree DMEM or 4 hours, subconfluent MDA-MB-231 cells were trypsinized and resuspended in 0.1% FBS DMEM. 5×10^4 cells in 500 μL of 0.1% FBS DMEM containing various compounds or 1.0% DMSO (as control) were added to the upper chambers. […] We incubated the invasion chambers for 3 hours at 37° C., 5% CO2. Non-invaded cells were removed from the upper chamber with a cotton swab. The invaded cells were fixed with 100% methanol and then stained with Hematoxylin Stain Harris Modified Method (Fisher, SH30-500D). The filters were washed with water 3 times. Filters were air dried and the invaded cells were counted in ten randomly selected microscopic fields (×200 magnification). The experiment was performed in triplicate per group and shown by mean±SE.

One may read the half-life as how long it takes for the measured level to halve. One may read the IC50 as the concentration that inhibits the measured activity by half. Higher therefore signals weaker potency. With `Cc1cc(C)cc(NC(=O)c2cnn(-c3ccc(C(C)C)cc3)c2C2CCNCC2)c1` [IPR-69, N-(3,5-dimethylphenyl)-1-(4-isopropylphenyl)-5-(piperidin-4-yl)-1H-pyrazole-4-carboxamide], in data set [1] (NOD/SCID, mouse, plasma, estimated, single oral gavage of 50 mg/kg), the half-life was roughly 2 h. For the same compound, the “oral bioavailability” value in data set [1] was “orally bioavailable”. Also, the “time of maximum level” value in data set [1] (single oral gavage of 50 mg/kg) is “approximately 5 hours”. Besides, the half-maximal inhibitory concentration (IC50) in the data set with MDA-MB-231 cells [2] amounted to 45 µM; with MDA-MB-231 cells [3] it was 40 µM.
